Values of other authors, collected in patent US20070141027A1, “Non-lethal conditioning methods for conditioning a recipient for bone marrow transplantation” (UNIVERSITY OF LOUISVILLE RESEARCH FOUNDATION INC., priority 2003, published 2007).

Test system: mice
Settings: reduced from 700 cGy TBI alone; CyP 200 mg/kg i.p. 2 days after BMT; ALG or anti-CD8 on day -3 added to it

Compound: O=P1(N(CCCl)CCCl)NCCCO1 (stereo not shown) [cyclophosphamide (CyP), cyclophosphamide]
- TBI dose for allogeneic marrow engraftment: 500 cGy
